Measurements: patent publication US9687551B2, “Compositions comprising lecithin oils and NSAIDs for protecting the gastrointestinal tract and providing enhanced therapeutic activity” (The Board of Regents of the University of Texas System, priority 2000, dated 2017)
Blank lines part the entries; values can stand above or below the compound they belong to.

Legend:
[1] = tested on: vascular (endothelial) PGI2, abdominal aorta; assay: Ex vivo 6-keto PGF1α production by abdominal aorta; type: in vivo, rat; details: 20 mg/kg ASA intragastric, 1 hr, incubated with AA; vs control; FIG. 13B
Method: FIG. 13B graphically depicts the effect of intragastric administration to rats of 20 mg/kg ASA alone or complexed with DPPC on 6KPGF1a production by abdominal aorta. After 1 hr the aorta was removed and each aorta ring was incubated at […] for 10 min in Tris-HCl buffer containing 25 mM AA. 6KPGF1a was measured by RIA. *=p<0.050 vs ASA; **=p<0.001 vs saline; n=4;
This ex vivo approach was then used to measure vascular (endothelial) PGI2. Abdominal aorta excised one hour after drug administration was evaluated for its ability to produce 6-keto PGF1α (a stable metabolite of PGI2) by incubating it with arachidonic acid (AA, 25 mM). […] It is, therefore, possible to achieve selective inhibition of platelet cyclooxygenase and preserve vascular prostacyclin biosynthesis by the administration of PC-aspirin.

[2] = tested on: rabbit carotid artery thrombus; assay: In vivo model of arterial thrombogenesis (carotid artery, anodal current)
Method: The anti-thrombotic effect of aspirin with or without PC was then evaluated in an in vivo model of arterial thrombogenesis. According to the protocol (B24), the left carotid artery of an anesthetized rabbit was subjected to anodal current to the point where mean carotid blood flow velocity was […] control values, which corresponds to 50% occlusion of the vessel by the formed thrombus. At this point the current was discontinued and the test drugs intravenously administered as blood flow was monitored over the next 2-3 hours. It can be appreciated from FIG. 14A that carotid artery blood flow velocity dropped to zero (indicative of complete thrombus occlusion of the vessel) in <60 min in control rabbits treated with either saline or phospholipid alone (mean time until closing=40±17).

[3] = tested on: PGI2 to TXA2 ratio of carotid artery; assay: PGI2 to TXA2 ratio in affected carotid arteries; type: in vivo, rabbit; details: 2.5 mg/kg aspirin; FIG. 14C
Method: 6-keto PGF1α (a metabolite of PGI2) and TXA2 concentrations was also measured in the affected carotid arteries.

[4] = tested on: fasted Sprague Dawley rats; assay: Acetaminophen liver injury, plasma AST; type: in vivo, rat; details: acetaminophen 800 mg/kg oral, 24 hrs, P35 SB 1:2 wt ratio, vs saline; FIG. 15
Method: FIG. 15 graphically depicts data relating to liver injury in rats, as indicated by elevations in the plasma levels of the enzyme aspartate transaminase (AST), 24 hours after fasted rats are orally administrated acetaminophen (800 mg/kg) alone or in combination with P35SB at wt. ratios of 1:1 and 1:2.

fasted rats [5] = assay: Gastric lesions after intragastric aspirin followed by HCl challenge; type: in vivo, rat; details: aspirin 18 mg/kg, 0.6 N HCl 45 min later, ASA:lecithin oil 1:0.5, 1:1, 1:2, FIG. 1
Method: One preferred embodiment of this formulation is a lecithin oil based PC-NSAID composition, which has been tested for GI toxicity. The three formulations that were tested include lecithin oils combined with aspirin, indomethacin and ibuprofen. In this study, aspirin was combined with Phosal® 35 SB, a lecithin oil, marketed by Phospholipid GmbH (Cologne, Germany), that is constituted of soy lecithin-derived components in sunflower oil. More particularly, Phosal® 35 SB lecithin oil contains about 33-40 wt. % phosphatidylcholine (PC, not including lyso-phosphatidylcholine), about 26-31 wt. % triglycerides, about 8-13 wt. % free fatty acids, and about 5-9 wt. % glycolipids. The aspirin/lecithin oil (Phosal® 35 SB) composition was intragastrically administered to fasted rats at an aspirin dose of 18 mg/kg, where the NSAID:lecithin oil weight ratio was systematically varied from 1:0.5, to 1:1, to 1:2. In addition, other groups of rats received an equivalent dose of aspirin in the absence of the lecithin oil, or an equivalent volume of saline. Forty five minutes later all animals were intragastrically challenged with 1 ml of 0.6 N HCl, and 15 min later, the animals were euthanized and their stomachs opened and the gastric lesions scored by an established method.^50-52

rats' inflamed paw = assay: Pain threshold of CFA-inflamed hindpaw (Randall-Sellito technique); type: in vivo, rat; details: 2 h; for pain pressure threshold of inflamed paw (analgesic activity): lecithin oil 1:1
Method: A previously described method was then used to evaluate the anti-inflammatory/analgesic activity of the NSAID-lecithin formulations (in comparison to the NSAIDs alone). This was accomplished be injecting 0.1 ml of Complete Freund's Adjuvant (CFA) into the left hindpaw of rats to induce an acute inflammatory response. […] The results are depicted in FIGS. 4-6.

[6] = tested on: TXB2 production in rat platelets; assay: Ex vivo TXB2 production in platelets after intragastric dosing; details: 20 mg/kg intragastric, 30 min, aggregation induced by arachidonic acid; FIG. 13A
Method: FIGS. 13A&B graphically depicts Concentration of TXB2 in rat platelets, 30 min after oral administration of saline, DPPC, ASA (20 mg/kg), or ASA complexed with DPPC. PRP was prepared and aggregation induced by AA (2 mM). TXB2 was measured by RIA. The results expressed as mean±SEM; n=3. *=p<0.050 vs ASA—Abbreviations: DPPC=dipalmitoylphosphatidylcholine; AA=arachidonic acid; pRP=platelet rich plasma; TXB=thromboxane;
Ex vivo animal studies of the effects of phospholipid-aspirin complex (containing equimolar concentration of the two agents) on the ability to produce TXA2 and PGI2 in platelets and vascular tissue respectively were invesitaged. Rats were intragastrically administered either unmodified or DPPC-associated aspirin (20 mg/kg dose), and after 30 minutes, blood was drawn, platelet-rich plasma was prepared, and aggregation was induced by arachidonic acid.

mucosal COX activity = details: aspirin subcutaneously or intragastrically; cited from earlier work
fasted rats [7] = assay: GI bleeding (hemoglobin in GI effusate) in rats sensitised with L-NAME; type: in vivo, rat; details: intragastric, NSAID:lecithin 1:1, L-NAME
Method: Control rats received an equivalent volume of saline. To make the rats more sensitive to the GI damaging effects of the NSAID all rats also were injected with the nitric oxide (NO) synthase inhibitor, L-NAME (20 mg/kg), three times over the 18-20 hr study period, after which the animals were euthanized and the distal 20 cm of the GI tract was flushed with 2 ml of saline, and the effusate collected for hemoglobin analysis—as an index of GI bleeding.

SCI rats = details: 25 mg NSAID/kg twice a day
Source text: In FIG. 7A, the data was plotted directly as recorded (without normalization), while in FIG. 7B, the data values for each animal are compared to its own baseline preoperative values.
Please note that in this case, a lower number is indicative of analgesic, whereas with the Randall Sellito test higher pain pressure threshold values are indicative of analgesia.

Tg2576 mouse = details: cited from earlier work

SMILES: CCCCCCCCCCCCCCCC(=O)OC[C@H](COP(=O)([O-])OCC[N+](C)(C)C)OC(=O)CCCCCCCCCCCCCCC [DPPC, dipalmitoylphosphatidylcholine]
6-keto PGF1α production by abdominal aorta [1]: no effect
time until blood flow velocity dropped to zero (complete occlusion) ([2]; control rabbits treated with saline or phospholipid alone, FIG. 14A): < 60 min
mean time until closing ([2]; control rabbits, saline or phospholipid alone (pooled), in min): 40±17
PGI2 to TXA2 ratio in affected carotid arteries [3]: improved slightly

SMILES: CC(=O)Nc1ccc(O)cc1 [Tylenol, acetaminophen]
plasma aspartate transaminase (AST), liver injury [4]: significantly elevated

gastric lesions (fasted rats [5]): high number of gastric lesions
SMILES: CC(=O)Oc1ccccc1C(=O)O [aspirin]
pain threshold of affected paw (analgesic activity) (rats' inflamed paw; aspirin 10 mg/kg intragastric, all weight ratios tested, FIG. 4): modest ability to increase the pain threshold
TXB2 production in platelets [6]: reduction in TXB2
6-keto PGF1α production by abdominal aorta [1]: significantly inhibited
time to vessel occlusion by thrombus ([2]; 2.5 mg/kg aspirin i.v., FIG. 14A): ≤ 61 ± 15 min
vessel occlusion ([2]; aspirin 5-20 mg/kg i.v., 2-3 hr experiment (data not shown)): no vessel occlusion
PGI2 to TXA2 ratio in affected carotid arteries [3]: improved slightly
inhibition of mucosal COX activity (mucosal COX activity): > 90%

SMILES: CC(C)Cc1ccc(C(C)C(=O)O)cc1 (centres unmarked) [ibuprofen]
GI bleeding (fasted rats [7]; ibuprofen 100 mg/kg, FIG. 3): modest increase in GI bleeding
pain pressure threshold of inflamed paw (analgesic activity) (rats' inflamed paw; ibuprofen 25 mg/kg intragastric, FIG. 5): modest though non-significant, ability to increase the pain pressure threshold
body weight gain (SCI rats; 6 week period, FIG. 9): do not gain weight
pain pressure threshold (hyperalgesia), Randall Sellito (SCI rats; 6 weeks after SCI, FIGS. 7A, 7B): hyperalgesia due to SCI was not seen
amyloid-plaques, dystrophic neurites and activated microglia (Tg2576 mouse): reduce numbers of amyloid-plaques, dystrophic neurites and activated microglia

SMILES: COc1ccc2c(c1)c(CC(=O)O)c(C)n2C(=O)c1ccc(Cl)cc1 [indomethacin]
GI bleeding (fasted rats [7]; indomethacin 10 mg/kg, FIG. 2): severe increase in GI bleeding
pain pressure threshold of inflamed paw (analgesic activity) (rats' inflamed paw; indomethacin 4 mg/kg intragastric, FIG. 6): modest though non-significant, ability to increase the pain pressure threshold
